Experiments:
hFXR [1] = target: T1, hFXR (Homo sapiens, UniProt Q96RI1); assay: In Vitro FXR Assay (TK), luciferase reporter in transfected CV-1 cells; assay type: cell-based; conditions: CV-1 cells transfected with hFXR, hRXR, TK-ECRE-luc; 18 hrs incubation; luminescence; compounds with a maximum efficacy of <25% of the Fexaramine control classified as '+'
T1 construct: expressed in transfected cells; host or cells: CV-1 cells
T1 sequence (Q96RI1 1-486): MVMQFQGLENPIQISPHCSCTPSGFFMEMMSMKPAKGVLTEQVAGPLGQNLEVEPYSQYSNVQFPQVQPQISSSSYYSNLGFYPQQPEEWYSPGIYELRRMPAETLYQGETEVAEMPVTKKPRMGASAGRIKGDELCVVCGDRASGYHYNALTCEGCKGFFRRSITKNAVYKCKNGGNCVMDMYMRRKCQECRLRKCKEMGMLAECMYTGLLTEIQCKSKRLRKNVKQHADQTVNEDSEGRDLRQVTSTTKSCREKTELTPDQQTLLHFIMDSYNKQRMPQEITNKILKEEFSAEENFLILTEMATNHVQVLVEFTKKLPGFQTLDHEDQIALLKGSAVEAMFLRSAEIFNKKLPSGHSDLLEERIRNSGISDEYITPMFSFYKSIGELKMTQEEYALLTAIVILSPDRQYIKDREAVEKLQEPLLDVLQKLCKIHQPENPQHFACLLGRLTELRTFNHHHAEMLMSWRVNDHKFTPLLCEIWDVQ
T1 sequence (P19793 1-462 partner): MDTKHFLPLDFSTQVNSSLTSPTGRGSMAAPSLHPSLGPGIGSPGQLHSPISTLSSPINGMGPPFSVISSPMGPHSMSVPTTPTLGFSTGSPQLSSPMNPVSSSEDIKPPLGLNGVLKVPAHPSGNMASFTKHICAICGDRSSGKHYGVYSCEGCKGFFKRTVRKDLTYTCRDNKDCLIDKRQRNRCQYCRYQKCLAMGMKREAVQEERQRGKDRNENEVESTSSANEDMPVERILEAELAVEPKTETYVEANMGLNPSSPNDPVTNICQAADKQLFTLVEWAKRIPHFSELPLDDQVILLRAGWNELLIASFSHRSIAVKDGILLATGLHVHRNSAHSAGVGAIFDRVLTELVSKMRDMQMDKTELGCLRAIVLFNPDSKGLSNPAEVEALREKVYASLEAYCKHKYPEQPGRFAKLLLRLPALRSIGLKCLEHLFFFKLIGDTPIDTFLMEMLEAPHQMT
Method: Example B-2: In Vitro FXR Assay (TK)
CV-1 cells were seeded at a density of 2,000,000 cells in a T175 flask with DMEM+10% charcoal double-stripped FBS and incubated at 37° C. in 5% CO2 for 18 h (O/N).
After 18 h of incubation, the medium in the T175 flask was changed with fresh DMEM+10% charcoal super-stripped serum. In a polypropylene tube, 2500 μL OptiMEM (Life Technologies, Cat #31985-062) was combined with expression plasmids for hFXR, hRXR, TK-ECRE-luc and pCMX-YFP. The tube was then briefly vortexed and incubated at room temperature for 5 minutes. Transfection reagent (X-tremeGENE HP from Roche, Cat #06 366 236 001) was added to the OptiMEM/plasmid mixture vortexed and incubated at room temperature for 20 minutes. Following incubation, the transfection reagent/DNA mixture complex was added to cells in the T175 flask and the cells were incubated at 37° C. in 5% CO2 for 18 h (O/N).
Compounds were serially diluted in DMSO and added to transfected CV-1 cells. The cells were then incubated for 18 hrs. The next day cells were lysed and examined for luminescence.

hFXR [2] = target: T1, hFXR; assay: In Vitro FXR Assay (PGL3), luciferase reporter in transfected CV-1 cells; assay type: cell-based; conditions: CV-1 cells transfected with hFXR, hRXR, PGL3-ECRE*6-luc; 18 hrs incubation; luminescence
Method: Example B-1: In Vitro FXR Assay (PGL3)
CV-1 cells were seeded at a density of 2,000,000 cells in a T175 flask with DMEM+10% charcoal double-stripped FBS and incubated at 37° C. in a 5% CO2 for 18 h (O/N).
After 18 h of incubation, the medium in the T175 flask was changed with fresh DMEM+10% charcoal super-stripped serum.
To prepare the transfection reaction mixture, the transfection reagent (X-tremeGENE HP from Roche, Cat #06 366 236 001) was added in to a 1.5 mL microcentrifuge tube labelled “A” at a ratio of 1:3 (DNA in g: transfection reagent in μL). OptiMEM medium (Life Technologies, Cat #31985-062) was added accordingly to provide a total volume of 1 mL. The transfection reaction mixture was then briefly vortexed and incubated at room temperature for 5 minutes.
In a separate 1.5 mL microcentrifuge tube labelled “B”, 100 μL OptiMEM and plasmids XPD90Gal pCMXhFXRfl, pCMXhRXRfl+PGL3-ECRE*6-luc+CMX-YFP in the ratio 2 g: 2 g:18 g:3 g were added. This microcentrifuge tube “B” was then briefly vortexed and incubated at room temperature for 5 minutes.
The total volume in tube labelled “A” was then transferred in to tube labelled “B.” The mixture was then briefly vortexed and the transfection:DNA complex was then incubated for about 15-20 minutes at room temperature.
Following incubation, the transfection reagent/DNA mixture complex was then added to cells in the T175 flask and the cells were incubated at […] (O/N) at 37° C. in 5% CO2.
In a 96 well plate, a half logarithmic serial dilution was prepared. OptiMEM was used as the diluent. Using any of one of the compounds described herein, a compound stock solution of 10 mM was prepared. An initial 1:100 dilution was made into the first well for a final concentration of 100 μM. The final concentrations in the 96-well plate was prepared by using a multichannel pipette to transfer 5 μL of the diluted compound to 384-well plate in quadruplicate.
Cells in T175 flask were trypsinized and cells were resuspending in 40 mL phenol red free DMEM+10% charcoal super-stripped FBS. Typically, one T175 flask was sufficient to seed two 384 well plates. CV-1 cells were seeded at 45 μL cell suspension/well using a multichannel pipet or a 384 multidrop dispenser. The cells were then incubated for 18 hrs, overnight.
After removing the plates from the incubator, the medium was flicked out of plate and 384 well plate was turned upside down onto paper towel. The remaining medium was gently tapped out. 15 μL lysis buffer was then added to each well using a multichannel pipet or a 384 well multi-drop dispenser. After incubation for 10 minutes at room temperature on shaker, 30 μL Luciferase buffer was added to each well. Luminescence counts were taken immediately using the Perkin Elmer Envision.
The ability of the compounds disclosed herein to […] FXR activity was quantified and the respective EC50 value was determined. Fex=fexaramine.

| SMILES | EC50 (hFXR [1]) [µM] | Cmpd/Fex (ratio of the EC50 for the test compound relative to the EC50 of the Fexaramine control) (hFXR [2]) |
| --- | --- | --- |
| COc1cncc(-c2cccc(N(Cc3ccc(-c4ccc(N(C)C)cc4)cc3)C(=O)C3CCCCC3)c2)c1 [Compound 1, N-((4′-(Dimethylamino)-[1,1′-biphenyl]-4-yl)methyl)-N-(3-(5-methoxypyridin-3-yl)phenyl)cyclohexanecarboxamide] | ≤ 3 | +++ (‘+++’ means Cmpd/Fex <10) |
| COc1cccc(-c2cccc(N(Cc3ccc(-c4ccc(N(C)C)cc4)cc3)C(=O)C3CCCCC3)c2)c1 [Compound 2, N-((4′-(Dimethylamino)-[1,1′-biphenyl]-4-yl)methyl)-N-(3′-methoxy-[1,1′-biphenyl]-3-yl)cyclohexanecarboxamide] |  | ++ (‘++’ means Cmpd/Fex >10 & <100) |
| COc1cc(-c2cccc(N(Cc3ccc(-c4ccc(N(C)C)cc4)cc3)C(=O)C3CCCCC3)c2)ccn1 [Compound 3, N-((4′-(Dimethylamino)-[1,1′-biphenyl]-4-yl)methyl)-N-(3-(2-methoxypyridin-4-yl)phenyl)cyclohexanecarboxamide] |  | +++ (‘+++’ means Cmpd/Fex <10) |
| CN(C)c1ccc(-c2ccc(CN(C(=O)C3CCCCC3)c3cccc(CN4CCCC4=O)c3)cc2)cc1 [Compound 8, N-((4′-(Dimethylamino)-[1,1′-biphenyl]-4-yl)methyl)-N-(3-((2-oxopyrrolidin-1-yl)methyl)phenyl)cyclohexanecarboxamide] |  | + (‘+’ means Cmpd/Fex >100) |
| COC(=O)NCc1cccc(N(Cc2ccc(-c3ccc(N(C)C)cc3)cc2)C(=O)C2CCCCC2)c1 [Compound 11, Methyl 3-(N-((4′-(dimethylamino)-[1,1′-biphenyl]-4-yl)methyl)cyclohexanecarboxamido)benzylcarbamate] |  | + (‘+’ means Cmpd/Fex >100) |
| CNC(=O)/C=C/c1cccc(N(Cc2ccc(-c3ccc(N(C)C)cc3)cc2)C(=O)C2CCCCC2)c1 [Compound 12, (E)-N-((4′-(Dimethylamino)-[1,1′-biphenyl]-4-yl)methyl)-N-(3-(3-(methylamino)-3-oxoprop-1-en-1-yl)phenyl)cyclohexanecarboxamide] |  | ++ (‘++’ means Cmpd/Fex >10 & <100) |
| CN(C)c1ccc(-c2ccc(CN(C(=O)C3CCCCC3)c3cccc(Oc4ccccc4)c3)cc2)cc1 [Compound 19, N-((4′-(Dimethylamino)-[1,1′-biphenyl]-4-yl)methyl)-N-(3-phenoxyphenyl)cyclohexanecarboxamide] |  | + (‘+’ means Cmpd/Fex >100) |

Other lines, results leading:

| EC50 (hFXR [1]) [µM] | Cmpd/Fex (ratio of the EC50 for the test compound relative to the EC50 of the Fexaramine control) (hFXR [2]) | SMILES |
| --- | --- | --- |
| 3 to 10 | +++ (‘+++’ means Cmpd/Fex <10) | COCCNc1cccc(N(Cc2ccc(-c3ccc(N(C)C)cc3)cc2)C(=O)C2CCCCC2)c1 [Compound 4, N-((4′-(dimethylamino)-[1,1′-biphenyl]-4-yl)methyl)-N-(3-((2-methoxyethyl)amino)phenyl)cyclohexanecarboxamide] |
|  | + (‘+’ means Cmpd/Fex >100) | CN(C)CCNc1cccc(N(Cc2ccc(-c3ccc(N(C)C)cc3)cc2)C(=O)C2CCCCC2)c1 [Compound 5, N-((4′-(Dimethylamino)-[1,1′-biphenyl]-4-yl)methyl)-N-(3-((2-(dimethylamino)ethyl)amino)phenyl) cyclohexanecarboxamide] |
|  | + (‘+’ means Cmpd/Fex >100) | CC(C)CNc1cccc(N(Cc2ccc(-c3ccc(N(C)C)cc3)cc2)C(=O)C2CCCCC2)c1 [Compound 6, N-((4′-(Dimethylamino)-[1,1′-biphenyl]-4-yl)methyl)-N-(3-(isobutylamino)phenyl) cyclohexanecarboxamide] |
| 3 to 10 | ++ (‘++’ means Cmpd/Fex >10 & <100) | CCC/C=C/c1cccc(N(Cc2ccc(-c3ccc(N(C)C)cc3)cc2)C(=O)C2CCCCC2)c1 [Compound 7, (E)-N-((4′-(dimethylamino)-[1,1′-biphenyl]-4-yl)methyl)-N-(3-(pent-1-en-1-yl)phenyl)cyclohexanecarboxamide] |
| ≤ 3 | ++ (‘++’ means Cmpd/Fex >10 & <100) | COC(=O)CNc1cccc(N(Cc2ccc(-c3ccc(N(C)C)cc3)cc2)C(=O)C2CCCCC2)c1 [Compound 9, Methyl 2-((3-(N-((4′-(dimethylamino)-[1,1′-biphenyl]-4-yl)methyl)cyclohexanecarboxamido)phenyl)amino)acetate] |
|  | + (‘+’ means Cmpd/Fex >100) | COC(=O)CN(C)c1cccc(N(Cc2ccc(-c3ccc(N(C)C)cc3)cc2)C(=O)C2CCCCC2)c1 [Compound 10, Methyl 2-((3-(N-((4′-(dimethylamino)-[1,1′-biphenyl]-4-yl)methyl)cyclohexanecarboxamido)phenyl)(methyl)amino)acetate] |
| ≤ 3 | + (‘+’ means Cmpd/Fex >100) | CN(C)C(=O)/C=C/c1cccc(N(Cc2ccc(-c3ccc(N(C)C)cc3)cc2)C(=O)C2CCCCC2)c1 [Compound 13, (E)-N-(3-(3-(Dimethylamino)-3-oxoprop-1-en-1-yl)phenyl)-N-((4′-(dimethylamino)-[1,1′-biphenyl]-4-yl)methyl)cyclohexanecarboxamide] |
|  | ++ (‘++’ means Cmpd/Fex >10 & <100) | C/C=C\c1cccc(N(Cc2ccc(-c3ccc(N(C)C)cc3)cc2)C(=O)C2CCCCC2)c1 [Compound 17, (Z)-N-((4′-(Dimethylamino)-[1,1′-biphenyl]-4-yl)methyl)-N-(3-(prop-1-en-1-yl)phenyl)cyclohexanecarboxamide] |

Source: patent US11214538B2, “Farnesoid X receptor agonists and uses thereof” (Metacrine, Inc., priority 2015, dated 2022)
